Data on 3 molecules can be found in article PMC11084959 (International Journal of Molecular Sciences, 2024).

“Also recorded” adds a separate entry of the source. Where a SMILES comes first, the peptide text is derived from it. Bridges are numbered along the chain shown (N, C = ends). Where no end group is shown, it is not given here.

In data set [1] the target is T1, recombinant hCaV3.2 channels (Homo sapiens, UniProt O95180).
T1 construct: expressed in transfected cells
In words: QPatch whole-cell patch-clamp, CaV3.2. Type of data set: cell-based. On the procedure:
(§1) The human embryonic kidney 293 (HEK 293) cell lines (from Emmanuel Bourinet, Montpellier, France) stably expressing CaV3.2 or CaV3.3 [41] were cultured under 5% carbon dioxide at 37 °C in Dulbecco’s Modified Eagle Medium (DMEM) Glutamax (Gibco, Life Technologies, Carlsbad, CA, USA) supplemented with 10% (v/v) fetal bovine serum (FBS), 100 U/mL penicillin, 100 μg/mL streptomycin (Gibco, Life Technologies), and 750 μg/mL geneticin (G418) (Gibco, Life Technologies). The Chinese Hamster Ovary (CHO) cell lines (Emmanuel Bourinet, Montpellier, France) expressing CaV3.1 [42] were cultured under 5% carbon dioxide at 37 °C in Alpha Minimum Essential Media (MEM) Glutamax (Gibco, Life Technologies), supplemented with 10% (v/v) fetal bovine serum (FBS) and 300 μg/mL geneticin (G418) (Gibco, Life Technologies). The human neuroblastoma SH-SY5Y cells (Victor Diaz, Goettingen, Germany) were cultured under 5% carbon dioxide at 37 °C in RPMI 1640 antibiotic-free medium (Invitrogen, Carlsbad, CA, USA), supplemented with 15% FBS and 2 mM GlutaMAX™ (Invitrogen). D-PBS (Gibco, Life Technologies) was used to wash the cells, and 0.25% Trypsin-EDTA (Gibco, Life Technologies) was used to detach the cells from the flask surface. They were split in a ratio of 1:5 (ideally 1000 cells/cm^2) when they reached 70–80% confluence (every 2–3 days).
(§2) Whole-cell patch-clamp experiments were performed on an automated electrophysiology platform QPatch 16 X (Sophion Bioscience A/S, Ballerup, Denmark) in a single-hole configuration using 16-channel planar patch chip QPlates (Sophion Bioscience A/S). The extracellular recording solution contained, in mM: TEACl 157, MgCl2 0.5, CaCl2 5, and HEPES 10; pH 7.4 adjusted with TEAOH; and osmolarity 320 mOsm. The intracellular pipette solution contained, in mM: CsF 140, EGTA 1, HEPES 10, and NaCl 10; pH 7.2 adjusted with CsOH; and osmolarity 325 mOsm. […]
(§3) The data were plotted and analyzed using GraphPad Prism v8.0 (GraphPad Software Inc., San Diego, CA, USA). […]

Data set [2] concerns the target T2, recombinant hCaV3.3 channels (Homo sapiens, UniProt Q9P0X4).
T2 construct: expressed in transfected cells
In words: QPatch whole-cell patch-clamp, CaV3.3. Type of data set: cell-based. On the procedure: as §1, §2, §3

In the next data set the test system is L-type CaVs. In words: L-type CaV FLIPR assay in SH-SY5Y cells. The following applies: 0.781–200 µM, 1 µM CVID, agonist 90 mM KCl + 5 mM CaCl2, n = 4. Type of data set: cell-based, human. As for the experimental part:
as §1, with “D-PBS (Gibco, Life Technologies) was used to wash the cells, and 0.25% Trypsin-EDTA (Gibco, Life Technologies) was used to detach the cells from the flask surface. They were split in a ratio of 1:5 (ideally 1000 cells/cm^2) when they reached 70–80% confluence (every 2–3 days).” left out
(§4) SH-SY5Y cells were seeded into 384-well black wall clear bottom plates at a density of 15,000 cells per well, resulting in 90–95% confluence after 24 h. […] The fluorescence readings were recorded and converted as described previously, and an agonist containing 90 mM KCl + 5 mM CaCl2 was used in the second addition.

The subject of data set [3] is Lucilia cuprina (Australian sheep blowflies). In words: Insecticidal activity against sheep blowflies (injection). Type of data set: in vivo. The following applies: 1, 4 and 10 μg per fly injected; 10 flies per group; paralytic effects at 0.5, 1, 2 and 24 h.
The test system of data set [4] is recombinant hCaV3.1 channel. As to the kind of experiment: QPatch whole-cell patch-clamp, CaV3.1. Type of data set: cell-based. Particulars: human CaV3.1 in CHO cells. As for the experimental part:
as §1, with “They were split in a ratio of 1:5 (ideally 1000 cells/cm^2) when they reached 70–80% confluence (every 2–3 days).” left out
as §3

A further data set concerns human HVA N-type CaV2.2. As to the kind of experiment: N-type CaV2.2 FLIPR assay in SH-SY5Y cells. Type of data set: cell-based. Particulars: 0.781–200 µM, 10 µM nifedipine, agonist 90 mM KCl + 5 mM CaCl2, n = 4. On the procedure: as §1, with “D-PBS (Gibco, Life Technologies) was used to wash the cells, and 0.25% Trypsin-EDTA (Gibco, Life Technologies) was used to detach the cells from the flask surface. They were split in a ratio of 1:5 (ideally 1000 cells/cm^2) when they reached 70–80% confluence (every 2–3 days).” left out
as §4

Data set [5] deals with T-type CaVs (CaV3.1 and CaV3.2). Particulars: ref [9],[10]; cited from earlier work. The source says:
Scorpions are venomous arachnids of the order Scorpiones, with around 2798 currently (December 2023) described species distributed on all continents except Antarctica. Scorpion venoms are complex mixtures of peptides, enzymes, mucoproteins, amino acids (aa), nucleotides, lipids, amines, heterocyclic components, inorganic salts, and probably other yet to be described substances. They are rich sources of neurotoxic polypeptides that recognize and bind to ion channels of excitable and non-excitable cells and modulate their functional properties. Based on the specific binding propertie ...

T1 sequence (O95180 whole entry): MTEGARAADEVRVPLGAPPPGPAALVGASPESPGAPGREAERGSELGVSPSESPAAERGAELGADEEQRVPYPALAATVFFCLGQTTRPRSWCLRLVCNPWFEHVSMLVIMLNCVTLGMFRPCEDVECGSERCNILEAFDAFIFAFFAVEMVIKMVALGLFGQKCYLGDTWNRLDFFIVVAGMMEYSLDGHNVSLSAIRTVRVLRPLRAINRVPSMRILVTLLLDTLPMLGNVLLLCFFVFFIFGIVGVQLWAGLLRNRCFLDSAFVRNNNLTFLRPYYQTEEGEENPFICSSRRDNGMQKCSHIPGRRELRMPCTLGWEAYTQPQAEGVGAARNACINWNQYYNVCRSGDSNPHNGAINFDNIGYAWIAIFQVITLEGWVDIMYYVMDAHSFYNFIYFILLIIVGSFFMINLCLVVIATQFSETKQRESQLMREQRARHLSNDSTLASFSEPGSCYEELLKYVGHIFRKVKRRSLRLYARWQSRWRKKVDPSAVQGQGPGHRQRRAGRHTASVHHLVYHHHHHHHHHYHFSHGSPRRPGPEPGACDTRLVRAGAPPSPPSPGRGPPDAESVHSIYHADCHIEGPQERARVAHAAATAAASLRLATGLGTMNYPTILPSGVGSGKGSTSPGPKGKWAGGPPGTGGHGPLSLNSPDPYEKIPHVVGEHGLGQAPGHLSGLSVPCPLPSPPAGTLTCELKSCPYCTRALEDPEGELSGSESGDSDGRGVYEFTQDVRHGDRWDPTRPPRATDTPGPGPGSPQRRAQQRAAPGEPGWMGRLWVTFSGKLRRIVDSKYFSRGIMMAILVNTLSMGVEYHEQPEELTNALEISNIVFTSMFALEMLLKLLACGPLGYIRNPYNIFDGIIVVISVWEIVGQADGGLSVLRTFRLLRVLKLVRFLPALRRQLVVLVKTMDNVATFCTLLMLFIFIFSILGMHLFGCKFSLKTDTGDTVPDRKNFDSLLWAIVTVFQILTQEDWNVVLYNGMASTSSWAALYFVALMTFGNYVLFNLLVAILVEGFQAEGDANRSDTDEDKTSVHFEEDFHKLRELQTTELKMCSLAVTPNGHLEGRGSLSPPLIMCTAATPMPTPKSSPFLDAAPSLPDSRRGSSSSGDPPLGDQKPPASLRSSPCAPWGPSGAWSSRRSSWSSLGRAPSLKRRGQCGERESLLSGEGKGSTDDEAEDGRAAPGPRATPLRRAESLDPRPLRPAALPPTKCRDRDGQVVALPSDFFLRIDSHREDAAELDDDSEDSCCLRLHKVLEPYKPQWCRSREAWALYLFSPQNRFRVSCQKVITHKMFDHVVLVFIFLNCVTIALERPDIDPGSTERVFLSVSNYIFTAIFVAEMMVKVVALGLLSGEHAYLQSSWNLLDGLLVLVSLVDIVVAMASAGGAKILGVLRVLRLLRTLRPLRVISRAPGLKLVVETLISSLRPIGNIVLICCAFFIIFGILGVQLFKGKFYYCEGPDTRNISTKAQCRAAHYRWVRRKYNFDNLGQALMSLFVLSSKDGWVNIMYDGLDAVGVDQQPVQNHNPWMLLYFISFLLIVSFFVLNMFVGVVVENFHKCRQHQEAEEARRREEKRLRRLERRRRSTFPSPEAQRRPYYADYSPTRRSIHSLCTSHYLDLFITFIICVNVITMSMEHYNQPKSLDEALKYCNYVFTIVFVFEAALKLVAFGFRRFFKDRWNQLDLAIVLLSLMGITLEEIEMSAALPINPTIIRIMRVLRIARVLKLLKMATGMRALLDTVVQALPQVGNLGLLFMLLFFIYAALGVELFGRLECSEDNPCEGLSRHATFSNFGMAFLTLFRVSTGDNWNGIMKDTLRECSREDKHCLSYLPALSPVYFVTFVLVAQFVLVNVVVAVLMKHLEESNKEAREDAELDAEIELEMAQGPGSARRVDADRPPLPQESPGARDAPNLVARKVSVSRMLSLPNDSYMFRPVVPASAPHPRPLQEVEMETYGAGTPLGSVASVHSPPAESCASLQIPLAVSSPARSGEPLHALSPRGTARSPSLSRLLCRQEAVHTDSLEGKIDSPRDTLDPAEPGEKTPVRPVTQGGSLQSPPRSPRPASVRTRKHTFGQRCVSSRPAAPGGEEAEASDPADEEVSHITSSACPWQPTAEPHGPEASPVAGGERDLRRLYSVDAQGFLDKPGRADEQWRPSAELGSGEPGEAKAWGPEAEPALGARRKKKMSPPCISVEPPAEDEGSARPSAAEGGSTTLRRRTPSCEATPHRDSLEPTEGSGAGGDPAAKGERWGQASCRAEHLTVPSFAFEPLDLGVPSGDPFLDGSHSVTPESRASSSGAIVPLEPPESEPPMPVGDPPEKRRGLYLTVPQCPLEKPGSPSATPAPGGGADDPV
T2 sequence (Q9P0X4 whole entry): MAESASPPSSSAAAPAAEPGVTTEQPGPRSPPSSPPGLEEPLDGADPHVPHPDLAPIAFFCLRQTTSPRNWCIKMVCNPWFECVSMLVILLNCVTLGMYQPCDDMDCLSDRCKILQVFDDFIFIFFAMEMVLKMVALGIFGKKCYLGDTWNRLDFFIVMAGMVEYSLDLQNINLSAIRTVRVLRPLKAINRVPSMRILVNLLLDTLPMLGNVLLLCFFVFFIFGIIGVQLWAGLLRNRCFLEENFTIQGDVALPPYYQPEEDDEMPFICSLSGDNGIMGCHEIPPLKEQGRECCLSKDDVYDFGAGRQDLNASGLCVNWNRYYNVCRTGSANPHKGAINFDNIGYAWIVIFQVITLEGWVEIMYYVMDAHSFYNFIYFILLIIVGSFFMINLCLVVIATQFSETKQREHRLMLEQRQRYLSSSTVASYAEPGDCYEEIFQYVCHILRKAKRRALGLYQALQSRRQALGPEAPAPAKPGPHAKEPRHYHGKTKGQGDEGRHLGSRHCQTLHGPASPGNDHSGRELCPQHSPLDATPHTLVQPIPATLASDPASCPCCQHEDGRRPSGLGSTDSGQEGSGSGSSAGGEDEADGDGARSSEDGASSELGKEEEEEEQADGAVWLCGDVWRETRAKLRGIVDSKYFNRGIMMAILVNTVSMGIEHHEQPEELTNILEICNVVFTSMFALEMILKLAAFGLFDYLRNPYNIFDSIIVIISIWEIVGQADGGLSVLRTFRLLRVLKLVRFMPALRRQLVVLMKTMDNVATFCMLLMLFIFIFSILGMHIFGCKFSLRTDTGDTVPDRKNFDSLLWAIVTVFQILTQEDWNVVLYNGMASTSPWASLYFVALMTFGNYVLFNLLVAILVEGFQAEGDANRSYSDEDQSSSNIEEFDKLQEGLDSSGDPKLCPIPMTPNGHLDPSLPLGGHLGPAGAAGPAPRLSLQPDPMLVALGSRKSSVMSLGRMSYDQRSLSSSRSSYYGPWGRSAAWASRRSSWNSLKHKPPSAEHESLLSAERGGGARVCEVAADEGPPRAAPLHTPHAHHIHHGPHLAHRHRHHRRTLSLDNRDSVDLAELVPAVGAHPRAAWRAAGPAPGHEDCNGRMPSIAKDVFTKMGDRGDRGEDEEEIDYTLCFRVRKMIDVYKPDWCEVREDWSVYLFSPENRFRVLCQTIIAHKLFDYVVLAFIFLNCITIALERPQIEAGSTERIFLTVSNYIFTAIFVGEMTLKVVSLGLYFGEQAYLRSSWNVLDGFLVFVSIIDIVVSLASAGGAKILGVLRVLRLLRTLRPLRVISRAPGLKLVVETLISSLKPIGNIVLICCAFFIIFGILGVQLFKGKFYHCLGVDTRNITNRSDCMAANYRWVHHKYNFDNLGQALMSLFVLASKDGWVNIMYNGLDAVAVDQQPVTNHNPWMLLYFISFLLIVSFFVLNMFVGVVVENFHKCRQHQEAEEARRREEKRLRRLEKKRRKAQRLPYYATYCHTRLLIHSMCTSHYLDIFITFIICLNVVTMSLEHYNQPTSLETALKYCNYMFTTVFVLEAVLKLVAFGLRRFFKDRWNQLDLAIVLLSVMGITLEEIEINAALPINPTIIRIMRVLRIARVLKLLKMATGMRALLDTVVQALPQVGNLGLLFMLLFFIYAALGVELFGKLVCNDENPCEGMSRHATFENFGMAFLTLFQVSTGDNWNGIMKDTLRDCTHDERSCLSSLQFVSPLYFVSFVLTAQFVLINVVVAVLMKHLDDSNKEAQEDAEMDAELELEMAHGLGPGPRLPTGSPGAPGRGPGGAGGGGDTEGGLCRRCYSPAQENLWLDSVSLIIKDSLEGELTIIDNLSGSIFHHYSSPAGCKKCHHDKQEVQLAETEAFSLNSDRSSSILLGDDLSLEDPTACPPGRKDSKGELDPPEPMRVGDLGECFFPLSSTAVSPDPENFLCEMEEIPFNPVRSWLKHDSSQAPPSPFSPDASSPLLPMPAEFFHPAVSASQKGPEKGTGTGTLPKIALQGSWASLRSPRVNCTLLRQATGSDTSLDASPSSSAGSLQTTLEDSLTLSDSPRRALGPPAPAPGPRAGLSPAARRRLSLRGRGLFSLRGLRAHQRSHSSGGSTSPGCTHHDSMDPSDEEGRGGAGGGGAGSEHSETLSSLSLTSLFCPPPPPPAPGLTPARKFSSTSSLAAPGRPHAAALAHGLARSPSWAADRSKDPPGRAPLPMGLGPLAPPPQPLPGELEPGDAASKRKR

For the molecule `C[C@@H](O)[C@@H]1NC(=O)[C@@H](NC(=O)[C@@H](N)Cc2c[nH]cn2)CSSC[C@@H](C(=O)N[C@@H](Cc2c[nH]c3ccccc23)C(N)=O)NC(=O)[C@H](Cc2c[nH]cn2)NC(=O)[C@H](CC(N)=O)NC(=O)[C@H](CO)NC(=O)[C@H](CC(N)=O)NC(=O)[C@@H]2CCCN2C1=O` [Hf1a-NH2] (H-HCTPNSNHCW-NH2; disulfide 2-9), the inhibition at 25 µM in data set [1] (25 μM, holding −90 mV, 200 ms to −25 mV, n = 4, read-out: CaV3.2 current inhibition at 25 μM) was 31.7%; in data set [2] (25 μM, holding −90 mV, 200 ms to −10 mV, n = 4, read-out: CaV3.3 current inhibition at 25 μM), 44.6%. Also, the IC50 in data set [1] (partial inhibition, QPatch, holding −90 mV, 200 ms steps to −25 mV, 5 mM CaCl2, 0.1% BSA, pH 7.4, n = 4, means ± SEM, read-out: IC50 (CaV3.2 depolarized currents)) came to 1180 nM; in data set [2] (partial inhibition, QPatch, holding −90 mV, 200 ms steps to −10 mV, 5 mM CaCl2, 0.1% BSA, pH 7.4, n = 4, means ± SEM, read-out: IC50 (CaV3.3 depolarized currents)), 490 nM. Also, the “Adverse effects on locomotor performance” value (24 h post-injection, intraplantar) is reported as “no adverse effects on locomotor performance”. The “Abnormal motor function during treadmill run” value (mouse, in vivo) is recorded as “no abnormal motor functions like foot slips were noticed”. Also, the “Distance covered on treadmill” value (mouse, in vivo) is “showed no difference”.
On to “HCTPNSNHCW (disulfide 2-9 (inferred)) [Hf1a-OH]”, for which, in the data set on L-type CaVs, the “Effect on L-type CaVs” value is “neither form showed activity; also recorded: neither form of ω-Buthitoxin-Hf1a affected N-type or L-type CaVs; also recorded: Neither Hf1a-NH2 nor Hf1a-OH showed activity against L- and N-type HVA CaVs”. In addition, the “Effect on CaV3.2 current (in words)” value in data set [1] (QPatch, human CaV3.2 in HEK 293 cells) was “failed to show activity in any of the three subtypes; also recorded: did not show activity against any of the three T-type subtypes”. For the same molecule, the “Insecticidal activity against adult sheep blowflies” value in data set [3] was “no insecticidal activity; also recorded: neither Hf1a-OH nor Hf1a-NH2 showed observable insecticidal activity”. The “Effect on CaV3.3 current (in words)” value in data set [2] (QPatch, human CaV3.3 in HEK 293 cells) was “failed to show activity in any of the three subtypes; also recorded: did not show activity against any of the three T-type subtypes”. Also, the “Effect on CaV3.1 current (in words)” value in data set [4] was “failed to show activity in any of the three subtypes; also recorded: did not show activity against any of the three T-type subtypes”. In addition, in the data set on human HVA N-type CaV2.2, the “Effect on N-type CaV2.2” value was “neither form showed activity; also recorded: neither form of ω-Buthitoxin-Hf1a affected N-type or L-type CaVs; also recorded: Neither Hf1a-NH2 nor Hf1a-OH showed activity against L- and N-type HVA CaVs”.

B1: kurtoxin (protein, UniProt P58910 1-63, looked up)
Kurtoxin: KIDGYPVDYWNCKRICWYNNKYCNDLCKGLKADSGYCWGWTLSCYCQGLPDNARIKRSGRCRA
With B1, in data set [5], the “Selective binding to T-type CaVs (CaV3.1 and CaV3.2)” value was “first and only scorpion toxin shown to selectively bind T-type CaVs (CaV3.1 and CaV3.2)”.
